“Also recorded” adds a separate entry of the source.

The record followed here is patent publication US20240043528A1, “NANOBODY-OGA FUSIONS AND USES THEREOF” (President and Fellows of Harvard College, priority 2020, published 2024).

Common to all, as to type: cell-based, human
Test [1] has as its system global O-GlcNAcylation. Put plainly: Global O-GlcNAcylation level in whole cell lysate, anti-O-GlcNAc (RL2) immunoblot. As to conditions: HEK 293T whole cell lysate, OSMI-4b 25 μM for 30 h. How it is done: After 36-48 h of transfection, cells were harvested and washed with PBS once. Cells were lysed with M-PER lysis buffer containing 1× protease inhibitor cocktail and 10 μM Thiamet-G unless otherwise noted. Protein concentrations were determined by the BCA assay kit (G-Biosciences, 786) on a multi-mode microplate reader FilterMax F3 (Molecular Devices LLC, Sunnyvale, CA).
For immunoblotting analysis, proteins were transferred to a nitrocellulose membrane using iBlot (Thermo Scientific). Membranes were blocked with Tris buffered saline containing 0.1% Tween-20 and 5% BSA and incubated with the primary antibodies (1:1000 dilution) and the secondary antibodies (1:10,000 dilution) sequentially. Immunoblot images were captured by Azure Imager C600. Analysis of immunoblots was conducted with Fiji ImageJ. All IR fluorescence western blot images are converted into grayscale images by Fiji ImageJ. The unsaturated exposure of immunoblot images was used for quantification with the appropriate loading controls as standards. Statistical analysis of the data was performed with Prism 8, using data from at least three independent experiments.

The test system of test [2] is c-Fos-Ubc-Flag-EPEA. Put plainly: Deglycosylation of c-Fos-Ubc-Flag-EPEA (anti-EPEA enrichment, anti-O-GlcNAc immunoblot). Particulars: HEK 293T cells. How it is done: For immunoprecipitation of proteins with the C-terminal EPEA tag, cell lysates with equal amounts of protein were diluted with PBS and incubated with C-tag affinity matrix (Thermo Scientific) for 1 h at room temperature, with end-to-end rotation, following the manufacturer's instructions. After washing three times with PBS buffer, the enriched proteins were eluted with SDS sample buffer and subjected to SDS-PAGE.
For immunoblotting analysis, proteins were transferred to a nitrocellulose membrane using iBlot (Thermo Scientific). […] All IR fluorescence western blot images are converted into grayscale images by Fiji ImageJ. The unsaturated exposure of immunoblot images was used for quantification with the appropriate loading controls as standards. […]
The ability of nUbc-split OGA to selectively remove an O-GlcNAc modification from Ubc-tagged c-Fos was examined. c-Fos is a core component of the AP-1 transcription factor complex, which will dimerize with c-Jun and drive downstream transcription (Hess, J., Angel, P. & Schorpp-Kistner, M. AP-1 subunits: quarrel and harmony among siblings. J. Cell Sci. 2004, 117, 5965-73). […] The O-GlcNAc modification level was evaluated by immunoblotting with an anti-O-GlcNAc antibody (FIG. 4C). Ratios were quantified from the protein level and O-GlcNAc level.

The subject of test [3] is AP-1 transcriptional activity. Put plainly: AP-1 responsive luciferase reporter assay in c-Fos-Ubc co-transfected HEK 293T cells. As to conditions: c-Fos-Ubc-Flag-EPEA co-transfected HEK 293T cells, 48 h; OSMI-4b 25 μM. How it is done:
For luciferase assay in the OGT inhibition experiment, HEK 293T cells co-transfected with c-Fos-Ubc-Flag-EPEA plasmid and AP-1 responsive luciferase reporter were treated with either DMSO or 25 μM OSMI-4b for 48 h before luciferase activity detection. […] Luciferase reporter assays were performed using Luciferase Assay System (Promega, E1500) according to manufacturer's protocols. At least three independent biological replicates were run using this assay.

In test [4] the test system is endogenous c-Jun. Put plainly: O-GlcNAcylation status of endogenous c-Jun (chemoenzymatic labeling, Biotin-IP). Particulars: HEK 293T cells expressing c-Fos-Ubc. As for the experimental part:
Purification of GalT1 (Y289L) enzyme and labeling of O-GlcNAcylated proteins with GalNAz were performed according to the procedure of Hsieh-Wilson and co-workers (Thompson, J. W., Griffin, M. E. & Hsieh-Wilson, L. C. Methods for the Detection, Study, and Dynamic Profiling of O-GlcNAc Glycosylation. Methods Enzymol. 2018, 598, 101-135). Briefly, cell samples in 6-well plates or 15-cm dishes were harvested and washed by PBS once. The lysis buffer (PBS with 2% SDS) was added into cell pellets and heated for 5 min at 95° C., followed by the sonication to sheer DNA. Protein concentrations were determined by BCA assay. Cell lysates were reduced and alkylated with 25 mM DTT at 95° C. for 5 min and 50 mM iodoacetamide at room temperature for 1 h respectively. Proteins were precipitated by the methanol/chloroform solution (aqueous phase:CH3OH:CHCl3=4:4:1) and resuspended in 1% SDS, 20 mM HEPES (pH 7.9) buffer with a concentration of 3.75 mg/mL. For 150 μg proteins, H2O (49 μL), 2.5×GalT labeling buffer (80 μL, final concentrations: 50 mM NaCl, 20 mM HEPES, 2% NP-40, pH 7.9), 100 mM MnCl2 (11 μL), 500 μM UDP-GalNAz (10 μL), 2 mg/mL GalT1 (Y289L) (10 μL) were added into cell lysates orderly. The reaction was gently rotated at 4° C. for at least 20 h and the proteins were precipitated as described above. The proteins were resuspended with 1% SDS, PBS for the further click chemistry. […]

Test [5] has as its system GFP-c-Jun. Put plainly: Cycloheximide (CHX) chase of GFP-c-Jun stability. As to conditions: 50 μM CHX for up to 12 h, HEK 293T cells. How it is done: HEK 293T cells were transiently transfected with indicated plasmids and treated with DMSO, or Ac45SGlcNAc, or Thiamet-G at the same time if needed. 36-48 h after the transfection, cells were incubated with 50 μM CHX for up to 12 h. At the indicated time points, cells were harvested and lysed with M-PER lysis buffer. Protein expression and global O-GlcNAc level were determined by immunoblot assays. GAPDH protein level was used as the internal loading control.

In the case of OSMI-4b, the “global O-GlcNAcylation level” value in test [1] was “dramatic reduction of global O-GlcNAcylation level”; in test [1] (listed as OSMI-4b9), “dramatic reduction”. Further, the “O-GlcNAc modification level on c-Fos-Ubc” value in test [2] is reported as “deglycosylated”. The “AP-1 transcriptional activity (luciferase)” value in test [3] is on record as “significantly upregulated”. Further, in test [4], the “O-GlcNAc modification on endogenous c-Jun” value is given as “reduced O-GlcNAc modification”.

`CCN=C1N[C@@H]2[C@@H](O)[C@H](O)[C@@H](CO)O[C@@H]2S1` [Thiamet-G]: the “stability / degradation of GFP-c-Jun” value in test [5] is “attenuated; also recorded: enhanced”.
